Assay results reported in patent US8637511B2, “Aminopyrimidines useful as kinase inhibitors” (Vertex Pharmaceuticals Incorporated, priority 2005, dated 2014).
pKi: −log10 of the molar value. “And” between values parts separate entries of the source, which are not always exact repeats. Equal entries are not always repeated. Where two headings read alike, the source gives them in different places.

Columns and labels:
Type in all cases: biochemical
Aurora-1 (Aurora B) = Aurora-1 (Aurora B) (Homo sapiens, UniProt Q96GD4); test: Aurora-1 (Aurora B) inhibition assay (radiometric)
Aurora-1 (Aurora B), sequence (Q96GD4 whole entry): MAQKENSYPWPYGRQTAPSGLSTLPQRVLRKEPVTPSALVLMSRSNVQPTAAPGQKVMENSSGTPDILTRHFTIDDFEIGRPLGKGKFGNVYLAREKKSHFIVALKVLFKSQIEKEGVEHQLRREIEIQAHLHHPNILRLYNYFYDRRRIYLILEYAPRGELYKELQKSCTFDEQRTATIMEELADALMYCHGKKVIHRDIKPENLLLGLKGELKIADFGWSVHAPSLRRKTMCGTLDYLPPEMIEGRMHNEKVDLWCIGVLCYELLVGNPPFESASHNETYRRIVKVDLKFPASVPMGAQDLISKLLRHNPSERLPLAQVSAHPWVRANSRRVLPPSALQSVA
Summary of the method: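 Radiometric ^33P incorporation into peptide substrate, with [γ-^33P]-ATP at 800 μM final, in 25 mM HEPES pH 7.5, 10 mM MgCl2, 0.1% BSA, 10% glycerol. Compound preincubated with enzyme for 10 min at 25° C, reaction run 3 h, then captured on phosphocellulose. Ki from initial rates by non-linear regression after background subtraction.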

Aurora-2 (Aurora A) = molecular target: T1, Aurora-2 (Aurora A) (Homo sapiens, UniProt O14965); test: Aurora-2 (Aurora A) inhibition assay, coupled enzyme
T1 sequence (O14965 1-403): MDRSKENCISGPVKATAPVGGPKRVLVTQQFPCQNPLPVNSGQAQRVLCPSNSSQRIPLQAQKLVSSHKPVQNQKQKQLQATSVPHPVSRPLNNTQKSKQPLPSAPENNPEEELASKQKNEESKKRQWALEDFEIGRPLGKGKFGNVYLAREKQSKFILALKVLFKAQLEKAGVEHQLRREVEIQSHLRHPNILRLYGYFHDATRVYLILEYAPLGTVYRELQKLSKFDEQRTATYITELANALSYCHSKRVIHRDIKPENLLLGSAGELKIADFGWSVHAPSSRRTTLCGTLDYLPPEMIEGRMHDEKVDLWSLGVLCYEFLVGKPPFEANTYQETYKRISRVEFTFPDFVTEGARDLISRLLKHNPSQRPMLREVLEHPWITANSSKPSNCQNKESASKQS
Summary of the method: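 Coupled pyruvate kinase/lactate dehydrogenase assay with NADH in pH 7.5 Hepes containing MgCl2, DTT and NaCl, using 40 nM Aurora-2 at 30 °C. After a 10 min preincubation, enzyme addition started the reaction, and initial rates were taken over 10 min. IC50 and Ki came from non-linear regression.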

human Itk kinase = molecular target: T2, human Itk kinase (Homo sapiens, UniProt Q08881); test: Itk inhibition assay: radioactivity-based assay; settings: Ki(app)
T2 sequence (Q08881 1-620): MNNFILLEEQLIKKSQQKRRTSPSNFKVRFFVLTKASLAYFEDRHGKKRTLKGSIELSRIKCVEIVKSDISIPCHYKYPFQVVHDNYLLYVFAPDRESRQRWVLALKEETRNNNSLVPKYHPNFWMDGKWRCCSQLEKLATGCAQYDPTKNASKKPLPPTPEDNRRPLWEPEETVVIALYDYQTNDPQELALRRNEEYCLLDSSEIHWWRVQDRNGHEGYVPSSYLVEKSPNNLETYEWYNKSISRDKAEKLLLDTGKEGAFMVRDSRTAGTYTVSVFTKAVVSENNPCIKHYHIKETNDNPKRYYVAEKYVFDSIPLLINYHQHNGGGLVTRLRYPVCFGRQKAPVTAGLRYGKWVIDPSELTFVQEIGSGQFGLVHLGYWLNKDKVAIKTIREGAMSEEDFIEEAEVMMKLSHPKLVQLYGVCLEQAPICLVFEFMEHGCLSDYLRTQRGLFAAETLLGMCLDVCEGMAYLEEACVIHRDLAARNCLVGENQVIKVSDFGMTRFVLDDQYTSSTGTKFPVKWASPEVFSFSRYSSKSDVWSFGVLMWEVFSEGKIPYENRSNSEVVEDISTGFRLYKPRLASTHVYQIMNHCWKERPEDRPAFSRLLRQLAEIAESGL
Summary of the method: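 50 nM Itk with 3 μM SAM68 Δ332-443 peptide and 7.5 μM [γ-33P]ATP in MOPS pH 7.0, MgCl2, 25° C; compound (top 50 μM final, 2-fold dilutions, 2% DMSO) preincubated 10 min, reaction 10 min. Phosphocellulose filter capture and scintillation counting; Ki(app) by non-linear regression of initial rates.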

[1] = read-out: Aurora B kinase Ki value
[2] = read-out: Aurora A kinase Ki value

pKi (Aurora-1 (Aurora B); Aurora B kinase Ki value) | Compound | pKi (Aurora-1 (Aurora B); [1]) | pKi (Aurora-2 (Aurora A); [2]) | pKi (human Itk kinase) | pKi (Aurora-2 (Aurora A))
– | CCC(=O)Nc1ccc(Sc2nc(Nc3cc(C)n[nH]3)cc(N3CC(O)(C(C)(C)C)C3)n2)cc1 [Compound 81] | ≥ 8.00 | ≥ 9.00 | ≥ 7.00 | –
– | Cc1cc(Nc2cc(N3CC(OC(C)(C)C)C3)nc(Sc3ccc(NC(=O)c4ccccc4Cl)cc3)n2)[nH]n1 [Compound 66] | ≥ 8.00 | – | 6.00 to 7.00 | ≥ 9.00
– | Cc1cc(Nc2cc(N3CCC3)nc(Sc3ccc(NC(=O)OC(C)(C)C)cc3)n2)n[nH]1 [Compound 26] | 5.70 to 7.30 | 6.70 to 8.30 | 5.70 to 6.00 | –
– | Cc1cc(Nc2cc(N3CCC3)nc(Sc3ccc4ccccc4c3)n2)n[nH]1 [Compound 25] | 5.70 to 7.30 | 8.30 to 9.00 | 5.70 to 6.00 | –
– | Cc1cc(Nc2cc(N3CCC3)nc(Sc3ccc(NC(=O)c4ccc(Cl)cc4)cc3)n2)n[nH]1 [Compound 54] | 5.70 to 7.30 | – | 6.00 to 7.00 | 8.30 to 9.00
– | Cc1cnc(Nc2cc(N3CC(N)C3)nc(Sc3ccc(NC(=O)C4CC4)cc3)n2)s1 [Compound 2] | 5.70 to 7.30 | 6.70 to 8.30 | 6.00 to 7.00 | –
– | CC1=NN=C(Nc2cc(N3CCC3)nc(Sc3ccc(NC(=O)c4cccc(Cl)c4F)cc3)n2)C1 [Compound 61] | ≥ 8.00 | ≥ 9.00 | ≥ 7.00 | –
– | COC1CN(c2cc(Nc3cc(C)[nH]n3)nc(Sc3ccc(NC(=O)c4ccccc4Cl)cc3)n2)C1 [Compound 12] | ≥ 8.00 | – | ≥ 7.00 | ≥ 9.00
– | Cc1cc(Nc2cc(N3CCC3)nc(Sc3ccc(NC(=O)C4CCCCC4)cc3)n2)n[nH]1 [Compound 30] | 7.30 to 8.00 | 8.30 to 9.00 | 6.00 to 7.00 | –
7.30 to 8.00 and > 7.60 | CC1=NN=C(Nc2cc(N3CCC3)nc(Sc3ccc(NC(=O)C4CCCN4C)cc3)n2)C1 (stereo not drawn) [Compound 6] | – | 6.70 to 8.30 | 6.00 to 7.00 | –
– | CCC(=O)Nc1ccc(Sc2nc(Nc3cc(C)n[nH]3)cc(N3CC(C)(O)C3)n2)cc1 [Compound 71] | 7.30 to 8.00 | 8.30 to 9.00 | 6.00 to 7.00 | –
– | Cc1cnc(Nc2cc(N3CCC3)nc(Sc3ccc(NC(=O)C4CC4)cc3)n2)s1 [Compound 4] | 5.70 to 7.30 | 8.30 to 9.00 | 6.00 to 7.00 | –
– | CCC(=O)Nc1ccc(Sc2nc(Nc3cc(C)[nH]n3)cc(N3CCC3)n2)cc1 [Compound 14] | 7.30 to 8.00 and > 7.60 | 8.30 to 9.00 | 6.00 to 7.00 | –
– | Cc1cc(Nc2cc(N3CC(C#N)C3)nc(Sc3ccc(NC(=O)c4ccccc4Cl)cc3)n2)n[nH]1 [Compound 16] | ≥ 8.00 | ≥ 9.00 | ≥ 7.00 | –
– | CC1=NN=C(Nc2cc(N3CCC3)nc(Sc3ccc(NC(=O)c4cccc(C(F)(F)F)c4F)cc3)n2)C1 [Compound 55] | ≥ 8.00 | – | 6.00 to 7.00 | ≥ 9.00
– | CCC(=O)Nc1ccc(Sc2nc(Nc3cc(C)n[nH]3)cc(N3CC(C)(C#N)C3)n2)cc1 [Compound 79] | 7.30 to 8.00 and > 7.60 | 8.30 to 9.00 | 6.00 to 7.00 | –
– | CCC(=O)Nc1ccc(Sc2nc(Nc3cc(C)n[nH]3)cc(N3CC(C)(NC(C)(C)C)C3)n2)cc1 [Compound 80] | 7.30 to 8.00 | 8.30 to 9.00 | 6.00 to 7.00 | –
– | Cc1cc(Nc2cc(N3CCC3)nc(Sc3ccc(NC(=O)c4nccn4C)cc3)n2)n[nH]1 [Compound 166] | 5.70 to 7.30 | 6.70 to 8.30 | 5.70 to 6.00 | –
– | Cc1cc(Nc2cc(N3CCC3)nc(Sc3ccc(NC(=O)c4c(F)cccc4N4CCC4)cc3)n2)n[nH]1 [Compound 8] | ≥ 8.00 | 8.30 to 9.00 | 6.00 to 7.00 | –
– | Cc1cc(Nc2cc(N3CCC3)nc(Sc3ccc(N(C)C(=O)c4ccccc4F)cc3)n2)n[nH]1 [Compound 10] | 5.70 to 7.30 | 6.70 to 8.30 | 5.70 to 6.00 | –

pKi (Aurora-1 (Aurora B); Aurora B kinase Ki value) | Compound | pKi (Aurora-1 (Aurora B); [1]) | pKi (Aurora-2 (Aurora A); [2]) | pKi (human Itk kinase) | pKi (Aurora-2 (Aurora A))
– | CCC(=O)Nc1ccc(Sc2nc(Nc3cc(C)[nH]n3)cc(N3CC(O)C3)n2)cc1 [Compound 15] | 7.30 to 8.00 and > 7.60 | – | 6.00 to 7.00 | 8.30 to 9.00
– | Cc1cc(Nc2cc(N3CCC3)nc(Sc3cccc(NC(=O)c4ccccc4Cl)c3)n2)[nH]n1 [Compound 49] | 5.70 to 7.30 | 6.70 to 8.30 | 5.70 to 6.00 | –
– | CCC(=O)Nc1ccc(Sc2nc(Nc3cc(C4CC4)n[nH]3)cc(N3CC(C)(O)C3)n2)cc1 [Compound 76] | ≥ 8.00 | 8.30 to 9.00 | ≥ 7.00 | –
– | Cc1ccc(C(=O)Nc2ccc(Sc3nc(Nc4cc(C)[nH]n4)cc(N4CCC4)n3)cc2)cc1 [Compound 28] | 7.30 to 8.00 | – | 6.00 to 7.00 | 8.30 to 9.00
– | Cc1cnc(Nc2cc(N3CC(N(C)C)C3)nc(Sc3ccc(NC(=O)C4CC4)cc3)n2)s1 [Compound 1] | 7.30 to 8.00 | 6.70 to 8.30 | 6.00 to 7.00 | –
– | CCNC(=O)c1ccc(Sc2nc(Nc3cc(C)[nH]n3)cc(N3CCC3)n2)cc1 [Compound 20] | 7.30 to 8.00 | – | 6.00 to 7.00 | 6.70 to 8.30
– | Cc1cc(Nc2cc(N3CC(C)C3)nc(Sc3ccc(NC(=O)c4ccccc4Cl)cc3)n2)n[nH]1 [Compound 39] | 7.30 to 8.00 and > 7.60 | 8.30 to 9.00 | ≥ 7.00 | –
– | Cc1cc(Nc2cc(N3CCC3)nc(Sc3ccc(NC(=O)CC(F)(F)F)cc3)n2)n[nH]1 [Compound 40] | ≥ 8.00 | ≥ 9.00 | 6.00 to 7.00 | –
– | Cc1cc(Nc2cc(N3CC(F)C3)nc(Sc3ccc(NC(=O)c4ccccc4Cl)cc3)n2)[nH]n1 [Compound 60] | 7.30 to 8.00 | 8.30 to 9.00 | ≥ 7.00 | –
– | CC1=NN=C(Nc2cc(N3CCC3)nc(Sc3ccc(NC(=O)c4ccccc4)cc3)n2)C1 [Compound 52] | 5.70 to 7.30 | 6.70 to 8.30 | 6.00 to 7.00 | –
– | Cc1cc(Nc2cc(N3CCC3)nc(Sc3ccc(NC(=O)Cc4cccc(Cl)c4)cc3)n2)[nH]n1 [Compound 58] | 7.30 to 8.00 and > 7.60 | 8.30 to 9.00 | 6.00 to 7.00 | –
– | Cc1cc(Nc2cc(N3CCC3)nc(Sc3ccc(NC(=O)C4CC4)cc3)n2)n[nH]1 [Compound 17] | 7.30 to 8.00 | 8.30 to 9.00 | 6.00 to 7.00 | –
– | CCC(=O)Nc1ccc(Sc2nc(C#CC(C)(C)N3CCC3)cc(Nc3cc(C)n[nH]3)n2)cc1 [Compound 77] | 5.70 to 7.30 | 8.30 to 9.00 | 6.00 to 7.00 | –
– | Cc1cc(Nc2cc(N3CCC3)nc(Sc3ccc(NC(=O)c4ccc(Cl)cc4Cl)cc3)n2)n[nH]1 [Compound 162] | 7.30 to 8.00 and > 7.60 | – | 6.00 to 7.00 | ≥ 9.00
– | Cc1cnc(Nc2cc(N3CC(O)C3)nc(Sc3ccc(NC(=O)C4CC4)cc3)n2)s1 [Compound 3] | ≥ 8.00 | 8.30 to 9.00 | 6.00 to 7.00 | –
– | Cc1cc(Nc2cc(N3CCC3)nc(Sc3ccc(NC(=O)c4ocnc4C)cc3)n2)n[nH]1 [Compound 167] | 5.70 to 7.30 | 6.70 to 8.30 | 5.70 to 6.00 | –
– | Cc1cc(Nc2cc(N3CCC3)nc(Sc3ccc(NC(=O)c4ccc(F)cc4F)cc3)n2)n[nH]1 [Compound 44] | 7.30 to 8.00 | 8.30 to 9.00 | 6.00 to 7.00 | –
– | Cc1cc(Nc2cc(N3CCC3)nc(Sc3ccc(NC(=O)Cc4ccccc4)cc3)n2)n[nH]1 [Compound 35] | 7.30 to 8.00 | 8.30 to 9.00 | 6.00 to 7.00 | –
– | CC1=NN=C(Nc2cc(N3CCC3)nc(Sc3ccc(NC(=O)c4ccccc4Cl)cc3)n2)C1 [Compound 5] | ≥ 8.00 | ≥ 9.00 | 6.00 to 7.00 | –
